According to PubChem BioAssay (NCI):
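Step 1: Grow cells in 96-well plates. Step 2: Expose to compound for 48 hours at 5 concentrations. Step 3: Interpolate endpoints linearly; if unreached, use highest concentration. The concentration for full growth arrest is given as TGI.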

Tests used:
Experiment in all cases: NCI anticancer screen, dose series, 48 h
[1] = tested on: UACC-257 melanoma
[2] = tested on: UACC-62 melanoma
[3] = tested on: CCRF-CEM leukemia
[4] = tested on: CAKI-1 renal
[5] = tested on: RXF 393 renal
[6] = tested on: M14 melanoma
[7] = tested on: MOLT-4 leukemia
[8] = tested on: MDA-MB-435
[9] = tested on: SF-539 CNS
[10] = tested on: SK-MEL-28 melanoma
[11] = tested on: MCF7 breast
[12] = tested on: HCC-2998 colon
[13] = tested on: KM12 colon
[14] = tested on: SK-OV-3 ovarian
[15] = tested on: COLO 205 colon
[16] = tested on: SF-268 CNS
[17] = tested on: NCI-H226 lung
[18] = tested on: HCT-116 colon
[19] = tested on: SW-620 colon
[20] = tested on: SNB-75 CNS
[21] = tested on: SNB-19 CNS
[22] = tested on: EKVX NSCLC
[23] = tested on: TK-10 renal
[24] = tested on: OVCAR-5 ovarian
[25] = tested on: T-47D breast
[26] = tested on: A498 renal
[27] = tested on: RPMI-8226 leukemia
[28] = tested on: IGROV1 ovarian
[29] = tested on: NCI-H522 lung
[30] = tested on: DU-145 prostate
[31] = tested on: ACHN renal
[32] = tested on: SK-MEL-2 melanoma
[33] = tested on: SN12C renal
[34] = tested on: HL-60(TB) leukemia
[35] = tested on: OVCAR-8 ovarian
[36] = tested on: BT-549 breast
[37] = tested on: OVCAR-4 ovarian
[38] = tested on: HT29 colon
[39] = tested on: SF-295 CNS
[40] = tested on: A549 NSCLC
[41] = tested on: HS 578T breast
[42] = tested on: 786-0 renal
[43] = tested on: NCI-H460 lung
[44] = tested on: MALME-3M melanoma
[45] = tested on: HCT-15 colon
[46] = tested on: OVCAR-3 ovarian
[47] = tested on: NCI/ADR-RES ovarian
[48] = tested on: MDA-MB-231 breast
[49] = tested on: U251 CNS
[50] = tested on: PC-3 prostate
[51] = tested on: NCI-H23 lung
[52] = tested on: LOX IMVI melanoma
[53] = tested on: HOP-62 NSCLC
[54] = tested on: MDA-N
[55] = tested on: K-562 leukemia
[56] = tested on: SK-MEL-5 melanoma
[57] = tested on: UO-31 renal
[58] = tested on: HOP-92 NSCLC

Measured: TGI

O=C(N/N=C(/COc1ccccc1Cl)N=Cc1cccnc1)c1ccncc1
> 100 µM: [1] | [2] | [3] | [4] | [5] | [6] | [7] | [8] | [9] | [10] | [11] | [12] | [13] | [14] | [15] | [16] | [17] | [18] | [19] | [20] | [21] | [22] | [23] | [24] | [25] | [26] | [27] | [28] | [29] | [30] | [31] | [32] | [33] | [34] | [35] | [36] | [37] | [38] | [39] | [40] | [41] | [42] | [43] | [44] | [45] | [46] | [47] | [48] | [49] | [50] | [51] | [52] | [53] | [54] | [55]

CC1(C)SC2C(NC(=O)C(C(=O)O)c3ccccc3)C(=O)N2C1C(=O)O (configuration not stated)
> 100 µM: [1] | [2] | [3] | [4] | [5] | [6] | [7] | [8] | [9] | [10] | [11] | [13] | [14] | [15] | [16] | [17] | [18] | [19] | [20] | [21] | [22] | [23] | [24] | [25] | [26] | [27] | [28] | [30] | [31] | [32] | [33] | [56] | [34] | [35] | [36] | [57] | [38] | [39] | [41] | [42] | [44] | [45] | [46] | [47] | [48] | [49] | [50] | [51] | [52] | [53] | [54] | [55]

CCC12CCCN3CCc4c(n(c5ccccc45)C(O)(C(=O)OC)C1)C32 (configuration not stated)
> 100 µM: [1] | [2] | [3] | [4] | [6] | [7] | [8] | [9] | [10] | [11] | [12] | [13] | [14] | [15] | [16] | [58] | [17] | [18] | [19] | [20] | [21] | [22] | [23] | [24] | [25] | [26] | [27] | [28] | [29] | [30] | [31] | [32] | [33] | [56] | [34] | [35] | [36] | [57] | [37] | [38] | [39] | [40] | [41] | [42] | [43] | [44] | [45] | [46] | [47] | [48] | [49] | [50] | [51] | [52] | [54]
